Converted amounts (≈) assume the structure as drawn.
What was measured:
Trichomonas vaginalis = experiment: Minimum inhibition concentration on Trichomonas vaginalis, in vitro quantitative tube-dilution test; type: cell-based; conditions: for Relative effectiveness Metronidazol = 1.0: MIC on Trichomonas vaginalis relative to Metronidazol = 1.0; for MIC: Trichomonas vaginalis, in vitro tube-dilution test
Experimental: Minimum inhibition concentrations (MIC) on Trichomonas
^1 The tests were carried out in vitro using the quantitative
tubedilutiom test described by P. Klein, Bakteriologische Geundlagen der
chemotherapeutischen Laboratoriumspraxis, SpringerVerlag
BerlinCoettingen-Heidelberg, 1957.

Trypanosoma brucei = Trypanosoma brucei infection of the mouse; type: in vivo, mouse (NMRI strains); conditions: for recidivation: 25 days post-observation
Experimental: (§1) The action against infections caused by Trypanosomas and Entamoeba histolytica can be illustrated on the mouse (NMRI strains) using methods described in Handbuch fur experimentelle Pharmakologie, Erganzungswerk 16, Erzeugung von Krankheitszustanden durch das Experiment, Part 9, pages 150 to 292, Springer-Verlag, Berlin-Goettingen-Heidelberg, 1964.
1. Trypanosoma brucei--infections of the mouse
(§2) Various dosages were investigated. The curing of the infection was determined microscopically and in a culture. There was also post-observation for 25 days after treatment was discontinued in order to establish whether there was any recidivation

Trypanosoma gambiense = Trypanosoma gambiense infection of mouse; type: in vivo, mouse (NMRI strains)
Experimental: as §1, §2
2. Trypanosoma gambiense--infection of mouse
(§3) Same method as in the case of Trypanosoma brucei

Trypanosoma congolense = Trypanosoma congolense infection of mouse; type: in vivo, mouse (NMRI strains)
Experimental: as §1, §2
3. Trypanosoma congolense--infection of mouse
as §3

Entamoeba histolytica = Entamoeba histolytica in vitro tube-dilution test; type: cell-based; conditions: Entamoeba histolytica PN and Q strains, read-out: minimum inhibition concentration
Experimental: 4. Entamoeba histolytica (tube-dilution test)
The PN and Q strains were tested.
The minimum inhibition concentrations were as follows:
The experiments were carried out in vitro using the quantitative tube-dilution test described by P. Klein, Bakteriologische Grundlagen der chemotherapeutischen Laboratoriumspraxis, Springer-Verlag, Berlin-Goettingen-Heidelberg, 1957.

Trichomonas = Trichomonas vaginal infection of mice; type: in vivo; conditions: po, read-out: cure; for responders at 25 mg/kg: 5×25 mg/kg perorally; for responders at 50 mg/kg: 5×50 mg/kg perorally
Experimental: 5. Trichomonas vaginal--infection of mice Various dosages were investigated. The curing of the infection was determined microscopically and in a culture.

[1] = LD 50 toxicity on mice, oral; conditions: mouse, in vivo, NMRI strain, a week's observation period

SMILES	MIC (Trichomonas vaginalis) [µg/mL]	MIC (Entamoeba histolytica) [µg/mL]	Relative effectiveness Metronidazol = 1.0 (Trichomonas vaginalis)	acute action (Trypanosoma brucei; 11×50 mg/kg perorally)	acute action (Trypanosoma gambiense; 11×50 mg/kg perorally)	acute action (Trypanosoma congolense; 11×50 mg/kg perorally)	responders at 25 mg/kg (Trichomonas) [%]	LD50 at 168 h [1] [mg/kg]	responders at 50 mg/kg (Trichomonas) [%]	also measured
Cc1nnc(C=Cc2ncc([N+](=O)[O-])n2C)s1 [Example 1, 2-methyl-5-[2-(1-methyl-5-nitroimidazol-2-yl)-vinyl]-1,3,4-thiadiazole]	0.02 (≈ 0.0796 µM)	< 0.01	5.0	100%	100%	100%	100	> 1500	–	recidivation (Trypanosoma brucei; 11×50 mg/kg perorally): 70%; recidivation (Trypanosoma gambiense; 11×50 mg/kg perorally): 80%; no recidivation (so in the source) (Trypanosoma congolense; 11×50 mg/kg perorally): 20%
CCc1nnc(C=Cc2ncc([N+](=O)[O-])n2C)s1 [Example 7, 2-ethyl-5-[2-(1-methyl-5-nitroimidazol-2-yl)-vinyl]-1,3,4-thiadiazole]	< 0.01	< 0.01	> 10.0	–	no action	no action	–	> 1500	100	acute action (Trypanosoma brucei; 11×50 mg/kg (route not given)): 100%; recidivation (Trypanosoma brucei; 11×50 mg/kg (route not given)): 30%
CCc1nnc(C(C)=Cc2ncc([N+](=O)[O-])n2C)s1 [Example 10, 2-ethyl-5-[1-methyl-2-(1-methyl-5-nitroimidazol-2-yl)-vinyl]-1,3,4-thiadiazole]	< 0.01	< 0.01	> 10.0	100%	100%	100%	100	> 1500	–	recidivation (Trypanosoma brucei; 11×50 mg/kg perorally): no recidivation; recidivation (Trypanosoma gambiense; 11×50 mg/kg perorally): 60%; recidivation (Trypanosoma congolense; 11×50 mg/kg perorally): no recidication
Cc1ccc(C(=O)Nc2ccc(S(=O)(=O)O)c3cc(S(=O)(=O)O)cc(S(=O)(=O)O)c23)cc1NC(=O)c1cccc(NC(=O)Nc2cccc(C(=O)Nc3cc(C(=O)Nc4ccc(S(=O)(=O)O)c5cc(S(=O)(=O)O)cc(S(=O)(=O)O)c45)ccc3C)c2)c1 [Suramin, reference compound]	–	–	–	–	–	–	–	–	–	acute action (Trypanosoma brucei; 7×50 mg/kg intraperitoneally): 80%; recidivation (Trypanosoma brucei; 7×50 mg/kg intraperitoneally): no recidivation; acute action (Trypanosoma gambiense; 7×50 mg/kg intraperitoneally): 50%; recidivation (Trypanosoma gambiense; 7×50 kg/mg intraperitoneally): no recidivation; acute action (Trypanosoma congolense; 7×50 mg/kg intraperitoneally): 70%; recidivation (Trypanosoma congolense; 7×50 mg/kg intraperitoneally): no recidivation

More lines, main results first:

MIC (Trichomonas vaginalis) [µg/mL]	MIC (Entamoeba histolytica) [µg/mL]	SMILES	Relative effectiveness Metronidazol = 1.0 (Trichomonas vaginalis)	acute action (Trypanosoma brucei; 11×50 mg/kg perorally)	acute action (Trypanosoma gambiense; 11×50 mg/kg perorally)	acute action (Trypanosoma congolense; 11×50 mg/kg perorally)	responders at 25 mg/kg (Trichomonas) [%]	LD50 at 168 h [1] [mg/kg]	responders at 50 mg/kg (Trichomonas) [%]	also measured
0.01 (≈ 0.0319 µM)	0.1 (≈ 0.319 µM)	Cn1c([N+](=O)[O-])cnc1C=Cc1nnc(-c2ccccc2)s1 [Example 2, 2-phenyl-5-[2-(1-methyl-5-nitroimidazol-2-yl)-vinyl]-1,3,4-thiadiazole]	10.0	no action	no action	no action	–	–	10	–
0.01 (≈ 0.0318 µM)	< 0.01	Cn1c([N+](=O)[O-])cnc1C=Cc1nnc(-c2ccncc2)s1 [Example 5, 2-(4-pyridyl)-5-[2-(1-methyl-5-nitroimidazol-2-yl)-vinyl]-1,3,4-thiadiazole]	10.0	no action	no action	no action	100	–	–	–
< 0.01	< 0.01	Cn1c([N+](=O)[O-])cnc1C=Cc1nncs1 [Example 6, 2-[2-(1-methyl-5-nitroimidazol-2-yl)-vinyl]-1,3,4-thiadiazole]	> 10.0	no action	no action	no action	–	–	50	–
0.1 (≈ 0.584 µM)	0.1 (≈ 0.584 µM)	Cc1ncc([N+](=O)[O-])n1CCO [Metronidazol, reference compound]	1.0	no action	–	–	100	–	–	–
0.1 (≈ 0.404 µM)	–	CCS(=O)(=O)CCn1c([N+](=O)[O-])cnc1C [Tinidazol, reference compound]	1.0	–	–	–	100	–	–	action (Trypanosoma brucei; 22×50 mg/kg perorally): no action
